In brackets after ≈: the same amount, converted by molar mass. Several values for one entry are separate records, joined by “and”; a condition that tells them apart may be missing. Identical values can stand only once. Like-named read-outs stand apart in the source and are kept apart here.
Experiments:
[1] = test system: HepG2 cells; conditions: 24 h
[2] = test system: Mtb H37Rv; assay: microbe, parasite or virus in culture; assay type: cell-based, Mycobacterium tuberculosis
[3] = test system: DNA damage responsive recA and radA reporters; assay type: cell-based, Mycobacterium tuberculosis
[4] = test system: Mtb strain H37Rv; assay: MIC against Mtb H37Rv under various media/carbon sources; assay type: cell-based; conditions: Mycobacterium tuberculosis
[5] = test system: Mtb H37Rv WT; assay: microbe, parasite or virus in culture; assay type: cell-based; conditions: Mycobacterium tuberculosis
[6] = test system: Mtb H37Rv; assay: MIC under iron-depleted (DFO) or iron-replete (FeCl3) conditions; assay type: cell-based, Mycobacterium tuberculosis
[7] = test system: cell wall responsive iniBAC promoter (piniB-LUX reporter strain); assay type: cell-based, Mycobacterium tuberculosis
[8] = in vitro; conditions: human, 24 h
[9] = read-out: Cytotoxicity (IC50) Galactose, HepG2 cells in DMEM/10% FBS with galactose
[10] = read-out: Cytotoxicity (IC50) Glucose, HepG2 cells in DMEM/10% FBS supplemented with glucose
[11] = Mycobacterium tuberculosis, H37RV, read-out: MIC in 7H9 ADC
[12] = Mycobacterium tuberculosis, H37RV, read-out: MIC in 7H9 GCas
[13] = Cytotoxicity (IC50) Galactose, HepG2 cells in DMEM/10% FBS with galactose
[14] = Cytotoxicity (IC50) Glucose, HepG2 cells in DMEM/10% FBS supplemented with glucose

Compound | IC50 [1, 9] [µM] | IC50 [1, 10] [µM] | MIC ([2]; read-out: MIC in 7H9 ADC) | MIC ([2]; read-out: MIC in 7H9 GCas) [µM] | MIC [2, 11] [µM] | MIC [2, 12] [µM] | IC50 [8, 13] [µM] | IC50 [8, 14] [µM] | other results
2-Methyl-3-phenyl-5-(pyrazin-2-yl)pyrazolo[1,5-a]pyrimidin-7(4H)-one [Compound P15] | > 100 | > 100 | 50.0 µM and 50 µM | 12.5 | – | – | – | – | –
2-Methyl-3-phenyl-5-(pyridin-3-yl)pyrazolo[1,5-a]pyrimidin-7(4H)-one [Compound P13] | > 100 | > 100 | 50.0 µM and 50 µM | 12.5 | – | – | – | – | –
5-(2-Fluorophenyl)-2-methyl-3-phenylpyrazolo[1,5-a]pyrimidin-7(4H)-one [Compound P16] | > 100 | > 100 | 12.5 µM | 3.12 | – | – | – | – | –
5-(3-Fluorophenyl)-2-methyl-3-phenylpyrazolo[1,5-a]pyrimidin-7(4H)-one [Compound P17] | 93.8 | > 100 | 6.25 µM | 1.56 | – | – | – | – | –
5-(4-Fluorophenyl)-2-methyl-3-phenylpyrazolo[1,5-a]pyrimidin-7(4H)-one [Compound P18] | > 100 | > 100 | 6.25 µM | 1.56 | – | – | – | – | –
5-(Furan-3-yl)-2-methyl-3-phenylpyrazolo[1,5-a]pyrimidin-7(4H)-one [Compound P14] | > 100 | > 100 | 25.0 µM and 25 µM | 3.12 | – | – | – | – | –
5-Cyclohexyl-2-methyl-3-phenylpyrazolo[1,5-a]pyrimidin-7(4H)-one [Compound P11] | > 100 | > 100 | >100 µM | >100 | – | – | – | – | –
5-Isobutyl-2-methyl-3-phenylpyrazolo[1,5-a]pyrimidin-7(4H)-one [Compound P12] | > 100 | > 100 | 100 µM | 12.5 | – | – | – | – | –
O=c1cc(CC2CCCCC2)[nH]c2c(-c3ccc(Cl)cc3)cnn12 [Compound 2, 3-(4-Chlorophenyl)-5-(cyclohexylmethyl)pyrazolo[1,5-a]pyrimidin-7(4H)-one, reference compound] | – | – | – | – | 9.38 (≈ 3.21 µg/mL) | 0.78 (≈ 0.267 µg/mL) | – | – | reporter gene assay DNA damage [3]: no; MIC ([4]; GAST/Fe, read-out: MIC GAST): 19 µM (≈ 6.49 µg/mL); MIC ([4]; pH 6, read-out: MIC nitrate/butyrate): 6.25 µM (≈ 2.14 µg/mL); MIC ([4]; read-out: MIC 7H9): 19 µM (≈ 6.49 µg/mL); MIC ([4]; read-out: MIC Chol): 12.5 µM (≈ 4.27 µg/mL); MIC ([4]; read-out: MIC GBSA/DBSA): 4.7 µM (≈ 1.61 µg/mL); MIC [5]: 0.39 µM (≈ 0.133 µg/mL); increase in potency under iron-depleted conditions (MIC ratio) [6]: greater efficacy under iron-limited conditions; reporter gene assay cell wall [7]: no
COc1cc(-c2ccccc2)nc2c(-c3ccccc3)c(C)nn12 [Compound P1, 7-Methoxy-2-methyl-3,5-diphenylpyrazolo[1,5-a]pyrimidine] | – | – | – | – | 100 (≈ 31.5 µg/mL) | > 100 | – | – | –
Cc1nn2c(=O)cc(-c3ccccc3)n(C)c2c1-c1ccccc1 [Compound P2, 2,4-Dimethyl-3,5-diphenylpyrazolo[1,5-a]pyrimidin-7(4H)-one] | – | – | – | 50 (≈ 15.8 µg/mL) | > 100 | 50 (≈ 15.8 µg/mL) | – | – | –
O=c1[nH]n2c(=O)cc(-c3ccccc3)[nH]c2c1-c1ccccc1 [Compound P3, 3,5-Diphenylpyrazolo[1,5-a]pyrimidine-2,7(1H,4H)-dione] | – | – | – | – | > 100 | > 100 | – | – | –
Nc1nn2c(=O)cc(-c3ccccc3)[nH]c2c1-c1ccccc1 [Compound P4, 2-Amino-3,5-diphenylpyrazolo[1,5-a]pyrimidin-7(4H)-one] | – | – | – | 25 (≈ 7.56 µg/mL) | 28.1 (≈ 8.5 µg/mL) | 25 (≈ 7.56 µg/mL) | – | – | –
Cc1nn2c(=O)nc(-c3ccccc3)[nH]c2c1-c1ccccc1 [Compound P5, 7-Methyl-2,8-diphenylpyrazolo[1,5-a][1,3,5]triazin-4(1H)-one] | – | – | – | 50 (≈ 15.1 µg/mL) | > 100 | 50 (≈ 15.1 µg/mL) | – | – | –
Cc1nn2c(=O)c(C)c(-c3ccccc3)[nH]c2c1-c1ccccc1 [Compound P6, 2,6-Dimethyl-3,5-diphenylpyrazolo[1,5-a]pyrimidin-7(4H)-one] | – | – | – | – | 43.8 (≈ 13.8 µg/mL) | 3.12 (≈ 0.984 µg/mL) | > 100 | > 100 | –
Cc1nn2c(=O)c(C(F)(F)F)c(-c3ccccc3)[nH]c2c1-c1ccccc1 [Compound P7, 2-Methyl-3,5-diphenyl-6-(trifluoromethyl)pyrazolo[1,5-a]pyrimidin-7(4H)-one] | – | – | – | – | 12.5 (≈ 4.62 µg/mL) | 3.12 (≈ 1.15 µg/mL) | – | – | –
Cc1nn2c(=O)cc(Cc3ccccc3)[nH]c2c1-c1ccccc1 [Compound P8, 5-Benzyl-2-methyl-3-phenylpyrazolo[1,5-a]pyrimidin-7(4H)-one] | – | – | 75 µM (≈ 23.7 µg/mL) | – | 75 (≈ 23.7 µg/mL) | 3.12 (≈ 0.984 µg/mL) | > 100 | > 100 | –
Cc1nn2c(=O)cc(CC3CCCCC3)[nH]c2c1-c1ccccc1 [Compound P9, 5-(Cyclohexylmethyl)-2-methyl-3-phenylpyrazolo[1,5-a]pyrimidin-7(4H)-one] | – | – | – | – | > 100 | > 100 | 50.5 | 85.8 | –
Cc1nn2c(=O)cc(CN3CCOCC3)[nH]c2c1-c1ccccc1 [Compound P10, 2-Methyl-5-(morpholinomethyl)-3-phenylpyrazolo[1,5-a]pyrimidin-7(4H)-one] | – | – | – | – | > 100 | > 100 | > 100 | > 100 | –
Cc1nn2c(=O)cc(-c3ccccc3)[nH]c2c1C [Compound P21, 2,3-Dimethyl-5-phenylpyrazolo[1,5-a]pyrimidin-7(4H)-one] | – | – | – | – | > 100 | 12.5 (≈ 2.99 µg/mL) | > 100 | > 100 | –
O=c1cc(-c2ccccc2)[nH]c2c(-c3ccccc3)cnn12 [Compound P22, 3,5-Diphenylpyrazolo[1,5-a]pyrimidin-7(4H)-one] | – | – | – | – | 12.5 (≈ 3.59 µg/mL) | 6.25 (≈ 1.8 µg/mL) | > 100 | > 100 | –
CC(C)c1nn2c(=O)cc(-c3ccccc3)[nH]c2c1-c1ccccc1 [Compound P23, 2-Isopropyl-3,5-diphenylpyrazolo[1,5-a]pyrimidin-7(4H)-one] | – | – | – | – | > 100 | 12.5 (≈ 4.12 µg/mL) | 86.2 | > 100 | –
O=c1cc(-c2ccc(F)c(F)c2)[nH]c2c(-c3ccc(Cl)cc3)cnn12 [Compound P26, 3-(4-Chlorophenyl)-5-(3,4-difluorophenyl)pyrazolo[1,5-a]pyrimidin-7(4H)-one] | – | – | – | – | 12.5 (≈ 4.47 µg/mL) | 12.5 (≈ 4.47 µg/mL) | 18.5 | 57.2 | potency relative to P25 [2]: 4 fold
O=c1cc(-c2ccc(F)c(F)c2)[nH]c2c(-c3ccccc3)c(C(F)(F)F)nn12 [Compound P27, 5-(3,4-Difluorophenyl)-3-phenyl-2-(trifluoromethyl)pyrazolo[1,5-a]pyrimidin-7(4H)-one] | – | – | – | – | > 100 | 100 (≈ 39.1 µg/mL) | > 100 | > 100 | –
[Cl][Fe]([Cl])[Cl] [FeCl3] | – | – | – | – | – | – | – | – | MIC ([6]; MIC of the iron-modulating additive itself): 500 µM
NNC(=O)c1ccncc1 [INH, isoniazid, reference compound] | – | – | – | – | 0.23 (≈ 0.0315 µg/mL) | 0.16 (≈ 0.0219 µg/mL) | – | – | MIC ([4]; GAST/Fe, read-out: MIC GAST): 0.1 µM (≈ 0.0137 µg/mL); MIC ([4]; read-out: MIC 7H9): 0.39 µM (≈ 0.0535 µg/mL); MIC ([4]; read-out: MIC Chol): 0.2 µM (≈ 0.0274 µg/mL); MIC ([4]; read-out: MIC GBSA/DBSA): 0.3 µM (≈ 0.0411 µg/mL); MIC [5]: 0.04 µM (≈ 0.00549 µg/mL)
COc1c(N2C[C@@H]3CCCN[C@@H]3C2)c(F)cc2c(=O)c(C(=O)O)cn(C3CC3)c12 [MOX, moxifloxacin] | – | – | – | – | – | – | – | – | reporter gene assay DNA damage [3]: yes
CC(C)=CCC/C(C)=C/CNCCNC1C2CC3CC(C2)CC1C3 (centres unmarked) [SQ109] | – | – | – | – | – | – | – | – | reporter gene assay cell wall [7]: yes
CC/C(=C(\c1ccccc1)c1ccc(OCCN(C)C)cc1)c1ccccc1 [Tamoxifen, reference compound] | – | – | – | – | – | – | 5.93 | 4.18 | –
Antimycin [reference compound] | 3.4 | 69.7 | – | – | – | – | – | – | –

Source: PMC7887755, “Structure–Activity Relationships of Pyrazolo[1,5-a]pyrimidin-7(4H)-ones as Antitubercular Agents” (ACS Infectious Diseases, 2021)
